Measured values reported in paper PMC13288762 (Frontiers in Medicine, 2026).

Columns and labels:
[1] = tested on: Mdr2−/− mice (model of PSC); experiment: MC infiltration and activation in liver of Mdr2−/− mice (IHC, qPCR); format: in vivo, mouse; details: 20 mg/kg IP daily, 2 weeks
Protocol: (§1) Animal procedures were performed according to protocols approved by Indiana University School of Medicine Institutional Animal Care and Use Committee. […] Male Mdr2^−/− mice (n = 8) were collected at twelve-weeks for PSC model. Twelve-week-old male Friend Virus B NIH Jackson (FVB/NJ [FVB/wild type (WT) control], n = 8) mice were used as control WT for Mdr2^−/−.
(§2) In all groups, serum, liver, cholangiocytes, and cholangiocyte supernatants were collected as described ([18], [19]). The collected liver was divided into three portions: (i) snap-frozen tissue; (ii) OCT-embedded blocks (5 μm cryosections) for immunofluorescence (IF); and (iii) formalin-fixed, paraffin-embedded (FFPE) blocks (4 μm sections) for immunohistochemistry (IHC).
(§3) Liver inflammation was evaluated by IHC for F4/80 in FFPE mouse liver sections, and positive cells were quantified by Image-Pro Premier software (Rockville, MD). Liver MC infiltration was detected with IHC for tryptase β-2 (Tpsb2) and mucosal MC chymase-1 (mMCP1) in liver sections. MCs were semi-quantified as Tpsb2 or mMCP1 positivite cell number/total area with Image-Pro Premier software (Rockville, MD). MC activation was determined by qPCR for Fc fragment of IgE, high affinity I, receptor for alpha polypeptide (Fcer1a), Mcpt1 and Tpsb2 in total liver samples.
(§4) Since we found increased chymase levels in human PSC livers, we evaluated the pharmacological inhibition of chymase in modulating PSC in Mdr2^−/− mice. […] All treatment groups were compared to Mdr2^−/− mice.

[2] = design: method as in earlier work; details: Phase 2 clinical trial, atopic dermatitis; cited from earlier work
[3] = tested on: Mdr2−/− mice (model of PSC); experiment: Liver damage, bile acids and inflammation in Mdr2−/− mice (H&E, TBA kit, F4/80 IHC); format: in vivo, mouse; details: 20 mg/kg IP daily, 2 weeks
Protocol: as §1, §2
Liver damage was assessed by hematoxylin and eosin (H&E) staining in FFPE mouse liver sections and scored in a coded fashion to determine portal inflammation. Serum and liver total bile acids (TBAs) were determined using a TBA Assay Kit (Colorimetric, Sigma-Aldrich).
as §3, §4

aortic aneurysm model = tested on: aortic aneurysm model; design: method as in PMID 31128093; details: 10 mg/kg for 4 weeks; cited from earlier work
[4] = tested on: Mdr2−/− mice (model of PSC); experiment: Ductular reaction and biliary senescence in Mdr2−/− mice (CK-19 IHC, p16 IF, qPCR); format: in vivo, mouse; details: 20 mg/kg IP
Protocol: as §1, §2
Ductular reaction was evaluated in FFPE mouse liver sections by IHC for CK-19 to specifically mark bile ducts. Stained slides were scanned by a digital scanner (Aperio AT2 scanner; Leica Biosystems). CK-19-positive area was quantified using the Image-Pro Premier software (Rockville, MD). Biliary senescence was evaluated by: (i) IF for p16 expression in frozen liver sections co-stained with CK-19 (to mark bile ducts) and (ii) mRNA expression of cellular senescence markers, cyclin dependent kinase inhibitor 2a (Cdkn2a; gene for p16), cyclin dependent kinase inhibitor 2c (Cdkn2c, gene for p18) and galactosidase, beta 1-like (Glb1l) in isolated mouse cholangiocytes ([3], [19]).
as §4

[5] = tested on: Mdr2−/− mice (model of PSC); experiment: Liver fibrosis in Mdr2−/− mice (FG/SR, hydroxyproline, desmin IF, qPCR); format: in vivo, mouse
Protocol: as §1, §2
Collagen deposition was determined by Fast Green/Sirius Red staining in FFPE mouse liver sections and quantified by the Image-Pro Premier software (Rockville, MD). Liver fibrosis was also determined by measuring hydroxyproline levels in total liver samples using the hydroxyproline assay kit (MAK008-1KT; Millipore Sigma, Billerica, MA). To detect activated HSCs, IF for desmin (co-stained with CK-19) was performed in frozen liver sections with semi-quantification ([20], [21]). The mRNA expression of the fibrosis markers, collagen type I alpha 1 (Col1a1) and tissue inhibitor of metalloproteinases 2 (Timp2) and transforming growth factor beta 1 (Tgfb1) was measured in total mouse livers by qPCR.
as §4

[6] = tested on: Mdr2−/− mice (model of PSC); design: method as in PMID 10711453; details: cited from earlier work
[7] = male Mdr2−/− mice, vs untreated Mdr2−/−, qPCR total liver
[8] = 20 mg/kg IP daily, 2 weeks, qPCR total liver
[9] = 20 mg/kg IP daily, 2 weeks, vs untreated mice

With `CCC[C@@H](NC(=O)N1CC(=NOCC)NC[C@H](Cc2cc(Cl)ccc2OC)C1=O)c1ccc(C(=O)O)c(N)c1` [INVA8001] the “number of chymase (mMCP1)-positive cells in liver” value ([1]; Mdr2−/− mice, IHC) was “significant reduction”, the “number of tryptase (Tpsb2)-positive cells in liver” value ([1]; Mdr2−/− mice, IHC) was “significant reduction” and the “Fcer1a mRNA expression in liver” value [1, 7] was “attenuated”. For the same molecule, the “Mcpt1 mRNA expression in liver” value [1, 7] was “attenuated”, the “Tpsb2 mRNA expression in liver” value [1, 7] was “decreasing trend (not statistically significant)” and the “safety and tolerability, adverse effects” value [2] was “no significant adverse effects reported”. The “histological damage (H&E)” value [3] was “amelioration”, the “portal inflammation (H&E)” value [3] was “amelioration” and the liver enzymes ([3]; data not shown) was “no significant changes”. The “hepatic total bile acid (TBA) accumulation” value ([3]; liver tissue) was “significant reduction”, the “number of infiltrating macrophages (F4/80 staining)” value ([3]; portal tracts, IHC) was “significantly reduced” and the “serum total bile acid (TBA) accumulation” value ([3]; serum) was “significant reduction”. The “efficacy in a model of aortic aneurysm” value (aortic aneurysm model) was “effective”, the “p16 immunoreactivity in liver” value ([4]; IF co-stained with CK-19) was “reduced” and the “bile duct mass (CK-19-positive bile ducts)” value ([4]; IHC) was “significant reduction”. The “Cdkn2a expression in isolated cholangiocytes” value ([4]; qPCR isolated cholangiocytes) was “reduced”, the “Cdkn2c expression in isolated cholangiocytes” value ([4]; qPCR isolated cholangiocytes) was “reduced” and the “Glb1l expression in isolated cholangiocytes” value ([4]; qPCR isolated cholangiocytes) was “reduced”. For the same molecule, the “Tgfb1 expression in isolated cholangiocytes” value ([4]; qPCR isolated cholangiocytes) was “reduced”, the “Cdkn2a mRNA expression in total liver” value ([4]; qPCR total liver) was “reduced” and the “Col1a1 gene expression in liver” value [5, 8] was “significantly reduced”. The “Tgfb1 gene expression in liver” value [5, 8] was “significantly reduced”, the “Timp2 gene expression in liver” value [5, 8] was “significantly reduced” and the “hepatic fibrosis, FG/SR staining” value [5, 9] was “decreased”. The liver hydroxyproline content [5, 9] was “lowered” and the “desmin immunoreactivity (HSC activation)” value ([5]; 20 mg/kg IP, IF liver sections) was “significantly reduced”.

In the case of `O=C(O)c1cc(=O)c2c(OCC(O)COc3cccc4oc(C(=O)O)cc(=O)c34)cccc2o1` [cromolyn sodium], the “levels of MC mediators, inflammation, tissue damage, and fibrosis” value [6] is given as “attenuates”.
